Values of other authors as cited in EP1530463B1, “L-ARGININE CONTAINING PHARMACEUTICAL COMPOSITION” (Vasopharm Biotech GmbH, priority 2002, dated 2004).
Read-outs that look alike come from different tables or passages of the source.

| SMILES | pKa (guanidino group) | pKa (organic acid) |
| --- | --- | --- |
| N=C(N)NCCC[C@H](N)C(=O)O [L-arginine] | 12.48 | – |
| O=C1O[C@H]([C@@H](O)CO)C(O)=C1O [ascorbic acid] | – | 4.17 |
